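Where inhibition never reached the appropriate level, the endpoint shown equals the highest concentration tested. Otherwise, values were interpolated linearly from a five-concentration, 48-hour dose response in 96-well plates. GI50 = concentration required for 50% inhibition of growth. Definition used: TGI = concentration required for complete inhibition of growth.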
Columns and labels:
Experiment in all cases: DTP human tumour cell line panel, 48 h
KM20L2 colon = test system: KM20L2 colon
HCT-15 colon = test system: HCT-15 colon
COLO 205 colon = test system: COLO 205 colon
XF 498 CNS = test system: XF 498 CNS
IGROV1 ovarian = test system: IGROV1 ovarian
LXFL 529 NSCLC = test system: LXFL 529 NSCLC
DMS 273 small cell lung = test system: DMS 273 small cell lung
NCI-H522 lung = test system: NCI-H522 lung
M19-MEL melanoma = test system: M19-MEL melanoma
786-0 renal = test system: 786-0 renal
DMS 114 small cell lung = test system: DMS 114 small cell lung
SNB-78 CNS = test system: SNB-78 CNS
DLD-1 colon = test system: DLD-1 colon
HOP-18 NSCLC = test system: HOP-18 NSCLC

How did the TGI (KM20L2 colon) turn out when `CC1(C)CC(C2CC(C)(C)CC(C)(C)[C@H]2O)[C@@H](O)C(C)(C)C1` (stereo not given in full) was run?
Its TGI is > 100 µM.

And the TGI (HCT-15 colon)?
Its TGI is > 100 µM.

What about the TGI (COLO 205 colon) of the same compound?
Its TGI is > 100 µM.

What about the TGI (XF 498 CNS) of the same compound?
The TGI was > 100 µM.

And the TGI (IGROV1 ovarian)?
The TGI was > 100 µM.

And the TGI (LXFL 529 NSCLC)?
Its TGI is > 100 µM.

And the TGI (DMS 273 small cell lung)?
The TGI was > 100 µM.

And the TGI (NCI-H522 lung)?
Its TGI is > 100 µM.

What about the TGI (M19-MEL melanoma) of the same compound?
Its TGI is > 100 µM.

And the TGI (786-0 renal)?
Its TGI is > 100 µM.

And the TGI (DMS 114 small cell lung)?
Its TGI is > 100 µM.

How did the TGI (KM20L2 colon) turn out when `COc1cccc(/C=N/[N-]C(N)=O)c1[O-].[OH3+].[Zn+2]` was run?
Its TGI is > 100 µM.

And the TGI (HCT-15 colon)?
Its TGI is > 100 µM.

What about the TGI (COLO 205 colon) of the same compound?
Its TGI is > 100 µM.

What about the TGI (IGROV1 ovarian) of the same compound?
The TGI was > 100 µM.

And the TGI (NCI-H522 lung)?
Its TGI is > 100 µM.

What about the TGI (786-0 renal) of the same compound?
Its TGI is > 100 µM.

Which results are given for `N=C1SCCS1`?
TGI (KM20L2 colon): > 100 µM; TGI (HCT-15 colon): > 100 µM; TGI (COLO 205 colon): > 100 µM; TGI (XF 498 CNS): > 100 µM; TGI (IGROV1 ovarian): > 100 µM; TGI (LXFL 529 NSCLC): > 100 µM; TGI (NCI-H522 lung): > 100 µM; TGI (M19-MEL melanoma): > 100 µM; TGI (SNB-78 CNS): > 100 µM; TGI (786-0 renal): > 100 µM; TGI (DLD-1 colon): > 100 µM; TGI (DMS 114 small cell lung): > 100 µM

Which results are given for `O=C1NCC2=C1CCC1c3ccccc3CCN21` (stereo not given)?
TGI (KM20L2 colon): > 100 µM; TGI (HCT-15 colon): > 100 µM; TGI (COLO 205 colon): > 100 µM; TGI (XF 498 CNS): > 100 µM; TGI (IGROV1 ovarian): > 100 µM; TGI (LXFL 529 NSCLC): > 100 µM; TGI (DMS 273 small cell lung): > 100 µM; TGI (NCI-H522 lung): > 100 µM; TGI (M19-MEL melanoma): > 100 µM; TGI (SNB-78 CNS): > 100 µM; TGI (786-0 renal): > 100 µM; TGI (DLD-1 colon): > 100 µM; TGI (DMS 114 small cell lung): > 100 µM

Which TGI (KM20L2 colon) does the source give for `CC[n+]1c(/C=C/c2ccc(N(CCCl)CCCl)cc2)ccc2cc(Br)ccc21` here?
The TGI was 11.9 µM.

And the GI50 (HCT-15 colon)?
Its GI50 is 2520 µM.

What about the TGI (COLO 205 colon) of the same compound?
The TGI was 128 µM.

What about the TGI (XF 498 CNS) of the same compound?
The TGI was 1.18 µM.

What about the TGI (IGROV1 ovarian) of the same compound?
The TGI was 18.4 µM.

And the TGI (LXFL 529 NSCLC)?
The TGI was 1.99 µM.

What about the TGI (NCI-H522 lung) of the same compound?
The TGI was 4.66 µM.

What about the GI50 (M19-MEL melanoma) of the same compound?
Its GI50 is 134 µM.

And the TGI (SNB-78 CNS)?
Its TGI is 15.4 µM.

And the TGI (786-0 renal)?
The TGI was 10.1 µM.

And the TGI (HOP-18 NSCLC)?
Its TGI is 19.6 µM.

What about the TGI (DLD-1 colon) of the same compound?
The TGI was 16.1 µM.

And the TGI (DMS 114 small cell lung)?
Its TGI is 15.2 µM.

Which results are given for `C=C1C(=O)OC2C3C(=C)[C@@H](OC(C)=O)CC3C(C)=CC(OC(=O)C(C)(O)C(C)OC(C)=O)[C@@H]12` (stereo not given in full)?
TGI (HCT-15 colon): 22 µM; TGI (COLO 205 colon): 15.9 µM; TGI (IGROV1 ovarian): 21.3 µM; TGI (NCI-H522 lung): 3.21 µM; TGI (786-0 renal): 24.2 µM

What does the source list for `COC(=O)C1CCCCCCCCCCC12SCCCS2` (stereo not given)?
TGI (HCT-15 colon): > 100 µM; TGI (COLO 205 colon): 37.4 µM; TGI (IGROV1 ovarian): 39.1 µM; TGI (NCI-H522 lung): 43.5 µM; TGI (786-0 renal): 28.5 µM

`CC(C)=CCc1c(O)c(CC=C(C)C)c2oc3c(c(=O)c2c1O)C(C=C(C)C)Oc1cc(O)ccc1-3` (stereo not given) was tested. Which TGI (HCT-15 colon) did it give?
The TGI was 19.1 µM.

What about the TGI (COLO 205 colon) of the same compound?
The TGI was 30.3 µM.

What about the TGI (IGROV1 ovarian) of the same compound?
Its TGI is 20.2 µM.

And the TGI (NCI-H522 lung)?
The TGI was 15.2 µM.

What about the TGI (786-0 renal) of the same compound?
Its TGI is 19.5 µM.

What does the source list for `O=C1c2cc([N+](=O)[O-])cnc2S(=O)(=O)N1c1ccc(Oc2ccccc2)cc1`?
TGI (HCT-15 colon): > 100 µM; TGI (COLO 205 colon): > 100 µM; TGI (IGROV1 ovarian): > 100 µM; TGI (NCI-H522 lung): > 100 µM; TGI (786-0 renal): > 100 µM

For `CC(C)(C)OC(=O)N1CCC[C@H]1CSC[C@@H]1CCCN1C(=O)OC(C)(C)C`, which TGI (HCT-15 colon) is on record?
The TGI was 92.4 µM.

What about the TGI (COLO 205 colon) of the same compound?
Its TGI is 30.5 µM.

And the TGI (IGROV1 ovarian)?
Its TGI is > 100 µM.

And the TGI (NCI-H522 lung)?
The TGI was 56 µM.

And the TGI (786-0 renal)?
Its TGI is > 100 µM.

With `COc1ccc(-c2c(C(=O)Nc3ccccc3)c(-c3ccccc3)n(C3OC(CO)C(O)C(O)C3O)c(=S)c2C#N)cc1` (stereo not given) as the compound, how does the TGI (HCT-15 colon) read?
Its TGI is > 100 µM.

And the TGI (COLO 205 colon)?
Its TGI is > 100 µM.

What about the TGI (IGROV1 ovarian) of the same compound?
Its TGI is > 100 µM.

What about the TGI (NCI-H522 lung) of the same compound?
Its TGI is > 100 µM.

What about the TGI (786-0 renal) of the same compound?
Its TGI is > 100 µM.

For `O=C(O)C1CCCCN1CCc1c[nH]c2ccccc12` (stereo not given), which TGI (HCT-15 colon) is on record?
The TGI was > 100 µM.

And the TGI (COLO 205 colon)?
The TGI was > 100 µM.

And the TGI (IGROV1 ovarian)?
Its TGI is > 100 µM.

And the TGI (NCI-H522 lung)?
Its TGI is > 100 µM.

What about the TGI (786-0 renal) of the same compound?
Its TGI is > 100 µM.

Which TGI (HCT-15 colon) does the source give for `COC1(CCO)CC=CCC1(CCO)OC` (stereo not given) here?
The TGI was > 100 µM.

What about the TGI (COLO 205 colon) of the same compound?
Its TGI is > 100 µM.

What about the TGI (IGROV1 ovarian) of the same compound?
Its TGI is > 100 µM.

And the TGI (NCI-H522 lung)?
Its TGI is > 100 µM.

And the TGI (786-0 renal)?
The TGI was > 100 µM.

`CCOP(=O)(OCC)OC1CC(n2cnc3c(N(CC)CC)ncnc32)OC1CO[Si](C)(C)C(C)(C)C` (stereo not given) was tested. Which TGI (HCT-15 colon) did it give?
The TGI was 45 µM.

And the TGI (COLO 205 colon)?
Its TGI is 32.8 µM.

What about the TGI (IGROV1 ovarian) of the same compound?
Its TGI is 32.3 µM.

And the TGI (NCI-H522 lung)?
The TGI was 27.6 µM.

And the TGI (786-0 renal)?
The TGI was 30 µM.
